{"source": "PubChem BioAssay AID1159561", "about": "(GlaxoSmithKline (GSK), 2015)", "note": "Activity calls are given as the source filed them.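 How the source made its calls: active means toxic to mouse fibroblast host cells, with IC50 below 50 µM; inactive means the rest.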"}
{"test_system": "NIH-3T3 viability, ATP luminescence", "test": "murine fibroblast viability via ATP level – cell-based, murine fibroblasts, cytotoxicity control for Trypanosoma cruzi inhibitor project (AID 1159561)", "details": "4 days"}
{"smiles": "COc1ccc2c(Cl)c(C(=O)N3CCC3)sc2c1Cl", "IC50": "> 50 µM (inactive)"}
{"smiles": "CC(C(=O)Nc1ccc(Br)cc1)N1CCN(c2ccc([N+](=O)[O-])cc2)CC1", "note": "(stereo not drawn)", "IC50": "> 50 µM (inactive)"}
{"smiles": "Cc1ccc2c(c1)-c1onc(C(=O)N3CCCCC3c3cccnc3)c1CO2", "note": "(stereo not drawn)", "IC50": "20 µM"}
{"smiles": "O=C1CSC(c2cccnc2)N1c1ccc(Cl)cc1Cl", "note": "(stereo not drawn)", "IC50": "> 50 µM (inactive)"}
{"smiles": "O=C(Nc1nc(-c2ccc(S(=O)(=O)N3CCOCC3)cc2)cs1)c1ccc([N+](=O)[O-])cc1", "IC50": "25 µM"}
{"smiles": "O=C(CSc1ccc(-c2ccccn2)nn1)Nc1ccc(Cl)cc1", "IC50": "32 µM"}
{"smiles": "CCCn1c(NC(=O)Cc2ccc(Cl)cc2)nc2ccccc21", "IC50": "> 50 µM (inactive)"}
{"smiles": "COc1cccc(C(=O)[C@H]2C[C@@H]2CN(Cc2cccnc2)Cc2cccnc2)c1", "IC50": "20 µM"}
{"smiles": "O=C1CN(C2CCCc3c(OCc4ccncc4)cccc32)C(=O)N1C1CCCCC1", "note": "(stereo not drawn)", "IC50": "> 50 µM (inactive)"}
{"smiles": "CNc1cc(Cn2c(C(=O)c3cc(C)cc(Cl)c3)c(C(C)C)c(=O)[nH]c2=O)ccn1", "IC50": "10 µM"}
{"smiles": "Cc1ccc(NC(=O)C(C)n2nc([N+](=O)[O-])c(Br)c2C)cc1Cl", "note": "(stereo not drawn)", "IC50": "13 µM"}
{"smiles": "O=C(COc1ncnc2cc([N+](=O)[O-])ccc12)NC(=O)NC1CCCCC1", "IC50": "> 50 µM (inactive)"}
{"smiles": "Cc1[nH]nc2c1C(c1ccc(OCc3ccccc3F)cc1)SCC(=O)N2", "note": "(stereo not drawn)", "IC50": "> 50 µM (inactive)"}
{"smiles": "CN(Cc1nnnn1C1CCN(Cc2ccc(-n3ccnc3)cc2)CC1)c1ccc(F)cc1F", "IC50": "25 µM"}
{"smiles": "O=[N+]([O-])c1ccc(C2=CC(c3ccccc3)=NCCN2)cc1", "IC50": "7.9 µM"}
{"smiles": "COc1ccc(-c2cc(C)no2)cc1S(=O)(=O)Nc1ccc(F)c(Cl)c1", "IC50": "25 µM"}
{"smiles": "Cn1cc(CN2CCN(c3ccc4c(c3)CCN(C(=O)[C@H]3C[C@@H]3c3ccccc3)CC4)CC2)cn1", "IC50": "20 µM"}
{"smiles": "NC(=O)c1ccc(-c2cccc(OCCN3CCN(C4CCCCC4)CC3)c2)cc1", "IC50": "16 µM"}
{"smiles": "Cc1cc(N(C)C)nc2ccc(Cc3cnc(N)nc3N)cc12", "IC50": "10 µM"}
{"smiles": "Cc1c(C#N)c([N+](=O)[O-])nn1Cc1cccc(Cl)c1Cl", "IC50": "40 µM"}
{"smiles": "O=C(NCc1nnc2n1CCCCC2)c1ccc(-c2ccc(F)cc2)o1", "IC50": "> 50 µM (inactive)"}
{"smiles": "COc1ccc(CN(C)Cc2ccncc2)cc1-c1ccc(S(=O)(=O)NC2CCC2)s1", "IC50": "25 µM"}
{"smiles": "Cc1cc(Br)cc(C(=O)c2c(C(C)C)c(=O)[nH]c(=O)n2Cc2ccnc(N)c2)c1", "IC50": "16 µM"}
{"smiles": "Cc1cc(C#N)c([N+](=O)[O-])cc1Br", "IC50": "20 µM"}
{"smiles": "COc1ccc(S(=O)(=O)NC(C)C)cc1Nc1ncc(-c2cccc(F)c2)cn1", "IC50": "5 µM"}
{"smiles": "CCCc1nc2nc(N)nc(N)c2cc1CC", "IC50": "32 µM"}
{"smiles": "Cc1c([N+](=O)[O-])c(C(=O)Nc2sc3c(c2C#N)CCC(C)C3)nn1C", "note": "(stereo not drawn)", "IC50": "13 µM"}
{"smiles": "O=C(Nc1cccc(F)c1)N1CCC(Oc2cccc(-c3cccnc3)c2)CC1", "IC50": "40 µM"}
{"smiles": "N#Cc1cc([N+](=O)[O-])ccc1NC1CCCCCC1", "IC50": "> 50 µM (inactive)"}
{"smiles": "COc1ccc2ncc(F)c(NC(=O)C3(O)CCC(NCc4ccc5c(c4)OCCO5)CC3)c2n1", "note": "(stereo not drawn)", "IC50": "7.9 µM"}
{"smiles": "O=c1[nH]ccc2ccc(-c3ccncc3)cc12", "IC50": "> 50 µM (inactive)"}
{"smiles": "Clc1cc(Br)ccc1OCCCCn1ccnc1", "IC50": "16 µM"}
{"smiles": "CC1CN(S(=O)(=O)c2ccc(NC(=O)c3cc(C4CC4)nc4c3cnn4C(C)C)cc2)CC(C)O1", "note": "(stereo not drawn)", "IC50": "> 50 µM (inactive)"}
{"smiles": "COc1ccc(NS(=O)(=O)c2cc(NC(=O)Cc3ccc(C)cc3)ccc2N2CCOCC2)cc1", "IC50": "25 µM"}
{"smiles": "COc1ccc(C(=O)N2CCC(Nc3cccnc3)C2)c(OC)n1", "note": "(stereo not drawn)", "IC50": "> 50 µM (inactive)"}
{"smiles": "O=C(c1cc2cc(Cl)ccc2[nH]1)N1CCCCC1c1cccnc1", "note": "(stereo not drawn)", "IC50": "40 µM"}
{"smiles": "O=C(c1cnn(-c2ccccc2)n1)N1CCCC(n2ccnc2)C1", "note": "(stereo not drawn)", "IC50": "20 µM"}
{"smiles": "Cc1cccc(NS(=O)(=O)c2ccc3c(c2)C(=O)c2cc(S(=O)(=O)Nc4cccc(C)c4C)ccc2-3)c1C", "IC50": "> 50 µM (inactive)"}
{"smiles": "O=C(NC1C(=O)N(c2ccccc2)C1c1cccnc1)c1ccc(Cl)s1", "note": "(stereo not drawn)", "IC50": "> 50 µM (inactive)"}
{"smiles": "COc1ccc(C(C)N(C)c2ncc3c(N)nc(N)nc3n2)cc1F", "note": "(stereo not drawn)", "IC50": "40 µM"}
{"smiles": "Cc1nc(N2CCC(C(=O)N3CCC(O)(c4cccnc4)CC3)CC2)nc2ccc(C(C)C)cc12", "IC50": "25 µM"}
{"smiles": "Cc1ccc(C)c(OC2CCN(C(=O)C(C)n3ccnc3)CC2)c1", "note": "(stereo not drawn)", "IC50": "> 50 µM (inactive)"}
{"smiles": "COc1ccc(NS(=O)(=O)c2cccc(NC(=O)c3cc(F)cc(F)c3)c2)cc1", "IC50": "25 µM"}
{"smiles": "CCCC(=O)N(Cc1ccccn1)c1nc2ccccc2s1", "IC50": "> 50 µM (inactive)"}
{"smiles": "CS(=O)(=O)c1ccc(CC(=O)Nc2nc(-c3ccc(Cl)s3)cs2)cc1", "IC50": "> 50 µM (inactive)"}
{"smiles": "CN(Cc1cc2ccccc2s1)c1ncc2c(N)nc(N)nc2n1", "IC50": "25 µM"}
{"smiles": "CC(=O)Nc1nc(-c2cc(C)ccc2C)c(C)s1", "IC50": "25 µM"}
{"smiles": "O=C(c1cccc(Cl)c1Cl)N1CCn2c1nc(-c1ccncc1)cc2=O", "IC50": "20 µM"}
{"smiles": "O=c1ccn(-c2ccc([N+](=O)[O-])cc2Cl)c2ccc(F)cc12", "IC50": "> 50 µM (inactive)"}
{"smiles": "COc1cccc(-c2cc(C(F)(F)F)nc(-n3ccc([N+](=O)[O-])n3)n2)c1", "IC50": "> 50 µM (inactive)"}
{"smiles": "Cc1nn(C2CCS(=O)(=O)C2)c(C)c1CN(C)C(=O)C=Cc1sc2ccccc2c1Cl", "note": "(stereo not drawn)", "IC50": "> 50 µM (inactive)"}
{"smiles": "N#Cc1cccc(CN2CCC(c3nc(-c4ccc(C(F)(F)F)nc4)no3)CC2)c1", "IC50": "> 50 µM (inactive)"}
{"smiles": "COc1ccc(-c2nc3ccncc3c(=O)n2CCOc2ccccc2)cc1", "IC50": "32 µM"}
